Patent US20260108612A1, “BETA-PEPTIDES AND BETA-PEPTIDE HYDROGELS” (MONASH UNIVERSITY, priority 2022, published 2026)
Entries after “also recorded” stand apart in the source; their conditions may differ.

Key:
Assay type in all cases: physicochemical
[1] = Atomic force microscopy of peptide self-assembly; details: ultrapure water, 0.25 mg/mL
Protocol: To confirm the self-assembly of β-tetrapeptides 1 and 2 into fibres, atomic force microscopy (AFM) was performed on a Nanoscope IV AFM with a Multimode head using a vertical engage ‘E’ scanner. A 2 μL peptide solution in MilliQ (ultrapure) water (0.25 mg/mL) was prepared and placed on a clean mica surface. A low concentration of peptide was necessary to avoid contamination the probe. The peptide solution was air-dried for 30 minutes, followed by further drying with a stream of N2 gas. Images were obtained under tapping mode with NSC-15 ‘B’ silicon cantilevers (Micromasch, Tallinn, Estonia) with a nominal force constant of 40 and 20 N/m for 1 and 2, respectively. Topographic, phase and amplitude images at a resolution of 512×512 were simultaneously obtained using scan frequency of 1 Hz with typical scan sizes of 5 μm×5 μm and 2 μm×2 μm. Images were processed with a sequence of plane fitting and offset flattening using Gwyddion 2.29 (www.gwyddion.net) software.

[2] = Inversion test for hydrogel formation (gelation); details: for Gelation result: 37° C., 24 hours
Protocol: An inversion test was used to qualitatively assess different solvent conditions and concentrations of 1 and 2 for forming a non-flowing, self-supporting stable hydrogel (Liebman, T., et al., 2007). Peptide solubility was tested using a variety of solvents and solvent mixtures: MilliQ (ultrapure) water, phosphate buffered saline (PBS) 1× (Sigma P3813), PBS 10× (Sigma P3813) and Dulbecco's Modified Eagle's Medium/Nutrient Mixture F-12 Ham (DMEM/F12) (Sigma D8437). 100 μL or 50 μL of solvent was added to 0.5 mg of peptide in a glass vial to achieve a final concentration of 5 or 10 mg/mL, respectively. The solution was vortexed up to 30 mins until all the peptide particles had dissolved and left to self-assemble and gelate for 30 minutes at room temperature.

[3] = Rheological characterisation (parallel plate rheometer); details: strain sweep 1% to 100% over 20 minutes, 1 Hz, 37° C.
Protocol: Rheological measurements were undertaken using an Anton Paar Physical parallel plate rheometer at 37° C. Hydrogels were prepared in 75% MilliQ Water/25% DMEM/F12 using 10 mg/mL of the following: 100% 1, 50% 1/50% 2, and 100% 2. The hydrogel solutions were made just prior to experiment and vortexed thoroughly, and then immediately pipetted onto the base. A top plate with diameter 8 mm was lowered to form a measurement gap size of 0.1 mm. In an oscillatory time sweep test, the storage (elastic, G′) and loss (viscous, G″) moduli were measured with strain applied at 1% at a constant frequency of 1 Hz. For the cyclic step-strain test, after 20 minutes, the strain was increased to 100% for 1 minute to mechanically shear the hydrogel before it is returned to 1% strain. This was repeated an additional 2 times. The plateau modulus was calculated as the average of the storage modulus at the end of each 20-minute gelation cycle. A strain sweep was conducted from 1% to 100% strain over the 20 minutes with a constant frequency of 1 Hz. The gel-to-sol transition point was determined at the strain at which the storage and loss modulus equalled in value. A dynamic frequency sweep was performed from 0.01 to 10 Hz with a constant strain of 1%. All measurements were obtained in triplicate and all figures are presented as the average of those triplicates.

[4] = 50% MilliQ Water/50% DMEM/F12, 5 mg/mL
[5] = 50% MilliQ Water/50% DMEM/F12, 10 mg/mL
[6] = 75% MilliQ Water/25% DMEM/F12, 5 mg/mL
[7] = 75% MilliQ Water/25% DMEM/F12, 10 mg/mL

SMILES | entanglement of the fibres (AFM) [1] | spontaneous self-assembly into fibres (AFM) [1] | time within which the hydrogel reverts back to a solution ([2]; 1:1 MilliQ Water and DMEM/F12, both 5 and 10 mg/mL) [h] | duration of stable hydrogel under physiological conditions ([2]; 3:1 MilliQ Water:DMEM/F12, 10 mg/mL) | Gelation result [2, 4] | Gelation result [2, 5] | Gelation result [2, 6] | Gelation result [2, 7] | Gelation result ([2]; DMEM/F12, 5 mg/mL) | Gelation result ([2]; DMEM/F12, 10 mg/mL) | Gelation result ([2]; MilliQ water, 5 mg/mL) | Gelation result ([2]; MilliQ water, 10 mg/mL) | peptide dissolution ([2]; MilliQ water, both 5 and 10 mg/mL) | Gelation result ([2]; PBS 1×, 5 mg/mL) | Gelation result ([2]; PBS 1×, 10 mg/mL) | Gelation result ([2]; PBS 10×, 5 mg/mL) | Gelation result ([2]; PBS 10×, 10 mg/mL) | peptide dissolution ([2]; 5 mg/mL, MilliQ water, PBS 1×, PBS 10×, DMEM and 50% MQ Water/50% DMEM/F12) | Strain for gel-to-sol Transition [3] [%]
CCCCCCCCCCCCCC(=O)NCC(CC(=O)NC(C)CC(=O)NC(CCCCN)CC(=O)NC1COC(=O)C1)NC(C)=O (stereo not drawn) [compound 1, Ac-Az(Myr)AKS*-Lac] | propensity for the nanofibres to aggregate together and form bundles | distinct nanofibres | ≤ 24 | over several weeks | Unstable gel | Unstable gel | Unstable gel | long-lasting stable hydrogel; also recorded: Stable gel | Liquid (liquid (has the same flow as water)) | Poor dissolution | Liquid (liquid (has the same flow as water)) | more viscous solution; also recorded: Viscous liquid | readily dissolved | Viscous liquid | prevented the peptide from being completely dissolved; also recorded: Poor dissolution | Viscous liquid | prevented the peptide from being completely dissolved; also recorded: Poor dissolution |  | 
CCCCCCCCCCCCCC(=O)NCC(CC(=O)NC(C)CC(=O)NC(CC(=O)NC1COC(=O)C1)C(=O)NCCNC(=O)C(CC(=O)O)NC(=O)CNC(=O)C(CCCNC(=N)N)NC(C)=O)NC(C)=O (stereo not drawn) [compound 2, Ac-Az(Myr)AX(RGD)S*-Lac] | more wide-spread and mesh-like | distinct nanofibres |  |  | liquid solution; also recorded: Liquid (liquid (has the same flow as water)) | Unstable gel | Unstable gel | Stable gel | liquid solution; also recorded: Liquid (liquid (has the same flow as water)) | Unstable gel | liquid solution; also recorded: Liquid (liquid (has the same flow as water)) | Liquid (liquid (has the same flow as water)) |  | liquid solution; also recorded: Liquid (liquid (has the same flow as water)) | Viscous liquid | liquid solution; also recorded: Liquid (liquid (has the same flow as water)) | Poor dissolution | readily dissolved | 31
